# Experiments:
# Assay type in all cases: cell-based
# [1] = test system: wild type S. typhimurium (ATCC 10428); assay: agar radial diffusion assay, wild type S. typhimurium; conditions: HEPES or PIPES buffer; 100 μg/ml or 300 μg/ml
# Protocol: (§1) FIGS. 7.A. and 7.B. depict the antimicrobial activity of mouse cryptain 1 (SEQ ID NO: 6). Samples of purified natural mouse cryptdin 1 (FIG. 7.A.) or rabbit NP-1 (FIG. 7.B.) were dissolved in 0.01% acetic acid and pipetted into wells produced in a 0.6, agarose/0.3% tryptone plate containing 1×10^6 log phase bacterial cells. After incubation at 37° C. for 18 hr, antimicrobial activity was evaluated by measuring the diameters of the clear zones. Closed circles denote wild type S. typhimurium; open circles denote the phoP^- mutant. […]
# (§2) Antibacterial activity was measured in an agar radial diffusion assay (Lehrer et al., supra, 1991b) using wild type S. typhimurium (ATCC 10428) or an isogenic phoP mutant of S. typhimurium (strain CS015 phoP102::Tn10d-Cam, Miller et al., supra, 1989). […]
# (§3) Purified cryptdin peptides were dissolved at 3 to 300 μg/ml in 0.010% acetic acid and activity was examined against E. coli ML35 (ATCC). […] Antibacterial activity was determined by measuring the diameter of learing around each well and plotted as a function of peptide concentration.
# [2] = test system: isogenic phoP mutant of S. typhimurium (strain CS015 phoP102::Tn10d-Cam); assay: agar radial diffusion assay, phoP mutant S. typhimurium; conditions: HEPES or PIPES buffer; 100 μg/ml or 300 μg/ml
# Protocol: as §1, §2, §3
# E. coli ML35 = assay: radial diffusion assay, E. coli ML35; conditions: 10 mM PIPES
# Protocol: Purified cryptdin peptides were dissolved at 3 to 300 μg/ml in 0.010% acetic acid and activity was examined against E. coli ML35 (ATCC). In the radial diffusion assay, […] peptide solution was transferred into wells formed in plates of 1% agarose buffered with 10 mM PIPES (pH 7.4) and containing 1×10^6 log-phase bacteria grown in trypticase soy broth. After 3 hr at 37° C., the plates were overlayed with 0.8w agarose containing 2× trypticase soy broth and incubated overnight. The antibacterial activities of cryptdin peptides was compared with the activity of rabbit neutrophil defensin NP-1, which was purified from peritoneal exudates as described by Selsted et al. (J. Biol. Chem. 260:4579-4584 (1985), which is incorporated herein by reference). Antibacterial activity was determined by measuring the diameter of learing around each well and plotted as a function of peptide concentration.
# S. aureus = assay: radial diffusion assay, S. aureus growth inhibition; conditions: higher concentrations (100 μg/ml and 300 μg/ml)
# E. coli ML35 cells = assay: bactericidal assay in suspension, E. coli
# Protocol: (§4) In order to determine whether the effect of the cryptdin peptides against E. coli is bacteriostatic or bacteriocidal, bacterial killing was quantitated as a function of time. Bactericidal asgayg were performed by incubating 1-2×10^6 log-phase bacteria in 10 mM PIPES containing 10 μg peptide/ml. After incubation for 15 or 30 min at 37° C., aliquots were removed, serially diluted and plated on trypticase soy agar. Bactericidal activity was quantitated by counting colonies after overnight incubation at 37° C.
# (§5) The bactericidal activity of rat cryptdin 1 also was examined. E. coli ML35 cells, S. areus 502A cells or mutant or wild type S. typhimuruim cells were incubated with various concentrations of rat cryptdin 1 or rabbit NP-1.
# S. areus 502A cells = assay: bactericidal assay, S. aureus 502A; conditions: 10 μg/ml
# Protocol: as §4, §5
# [3] = test system: mutant S. typhimuruim cells; assay: bactericidal assay, mutant S. typhimurium
# Protocol: as §4, §5
# [4] = test system: wild type S. typhimuruim cells; assay: bactericidal assay, wild type S. typhimurium; conditions: 10 μg/ml
# Protocol: as §4, §5
Sequence,inhibiting growth of wild type S. typhimurium compared with NP-1 [1],preventing growth of mutant S. typhimurium compared with NP-1 [2],activity against E. coli ML35 relative to NP-1 (E. coli ML35; compared at 100 μg/ml and 300 μg/ml),inhibiting growth of S. aureus compared with same concentration of NP-1 (S. aureus),E. coli cells killed (E. coli ML35 cells; 10 μg/ml),"killing of E. coli cells, rat cryptdin 1 compared with NP-1 (E. coli ML35 cells; various concentrations)",S. aureus cells killed (S. areus 502A cells),mutant S. typhimurium cells killed ([3]; 10 μg/ml),"killing of mutant S. typhimurium cells, rat cryptdin 1 compared with NP-1 ([3]; various concentrations)",killing of wild type S. typhimurium [4],activity against E. coli ML35 relative to rabbit NP-1 (E. coli ML35; at concentration above 100 μg/ml)
GLLCYCRKGHCKRGERVRGTCGIRFLYCCPR [cryptdin 4],more effective than the same concentration of NP-1,more effective than the same concentration of NP-1,at least 50 ×,more effective than the same concentration of NP-1,,,,,,,
LKQCHCRKFCRPYEKAEGSCRPGLFIKRKICCIQQWTPG [rat cryptdin 1],,,,,greater than 99%,more effective than NP-1,about 90%,greater than 99%,more effective than NP-1,relatively ineffective,
LSKKLICYCRIRGCKRRERVFGTCRNLFLTFVFCC [cryptdin 5],more effective than the same concentration of NP-1,more effective than the same concentration of NP-1,,more effective than the same concentration of NP-1,,,,,,,approximately 5 ×

# Source: US6300470A, “Antibiotic cryptdin peptides and methods of their use” (priority 1999, dated 2001)
